In US20210205340A1, “COMPOSITIONS COMPRISING SIALYLATED OLIGOSACCHARIDES FOR USE IN INFANTS OR YOUNG CHILDREN TO PREVENT LATER IN LIFE OBESITY OR RELATED COMORBIDITIES AND PROMOTE A HEALTHY GROWTH” (NESTEC S.A., priority 2016, published 2021):
“Also recorded” adds a separate entry of the source.

System: NCI-H716 cells
Experiment: Calcium assay: activation of NCI-H716 cells by sialylated oligosaccharides (change in fluorescence ratio from intracellular calcium increase)
Assay type: cell-based, human
Conditions: for significance of the increase in fluorescence ratio / concentration dependence of calcium response / activation of NCI-H716 cells / fluorescence ratio (intracellular calcium response): NCI-H716 cells; for significance of the increase in fluorescence ratio: 5 mg/mL, 10 mg/mL and 20 mg/mL, p<0.05 vs Negative control, two-sided t-test; for concentration dependence of calcium response / activation of NCI-H716 cells: 1-20 mg/mL, FIG. 1 / FIG. 3; for fluorescence ratio (intracellular calcium response): all the tested concentrations (1 mg/mL, 5 mg/mL, 10 mg/mL and 20 mg/mL), vs buffer negative control; for intracellular calcium release: in vitro system with endocrine intestinal cells, indicator of potential GLP-1 secretagogue capacity
Text: NCI-H716 is a cell line derived from human L-cells, the enteroendocrine cells that secrete GLP-1, and it is often used as a model of GLP-1 secretion. Unstimulated NCI-H716 cells secrete a basal level of GLP-1 and activation of the cells leads to dose-dependent increase in GLP-1 secretion. Activation of the NCI-H716 cells and subsequent release of GLP-1 can be triggered by nutrients such as palmitic acid, oleic acid, and meat hydrolysate, Gastrin Releasing Peptide (GRP), the cholinergic molecule Carbachol, bitter compounds such as denatonium, ginsenosides and other molecules.
Activation of NCI-H716 cells by ionomycin, GRP, denatonium, or ginsenosides leads to increased intracellular calcium. Elevation of intracellular calcium is therefore a marker of cell activation and in NCI-H716 cells it could be considered as an indicator of GLP-1 release.
A calcium assay was used to determine if NCI-H716 cells respond to human milk oligosaccharides (sialylated oligosaccharides) or components/precursors thereof (lactose and sialic acid). In this assay, cultured NCI-H716 cells were loaded with a fluorescent calcium sensitive dye then stimulated with the HMOs. The response to the stimulus was measured by change in fluorescence ratio in consequence of intracellular calcium increase. The tested HMOs were 3′-sialyllactose (3SL) and 6′-sialyllactose (6SL). They were tested individually.
GRP (Gastrin Releasing Peptide): positive control
Tested HMOs concentrations: 1 mg/mL, 5 mg/mL, 10 mg/mL and 20 mg/mL
Tested lactose and sialic acid concentrations: 5.5 mg/mL and 4.72 mg/mL respectively (correspond to the amounts contained in 10 mg/mL of 3SL, in order to make a suitable comparison with 10 mg/mL of 3SL)

For `CC(=O)N[C@H]1[C@H]([C@H](O)[C@H](O)CO)O[C@@](O[C@H]2[C@@H](O)[C@@H](CO)O[C@@H](O[C@H]3[C@H](O)[C@@H](O)C(O)O[C@@H]3CO)[C@@H]2O)(C(=O)O)C[C@@H]1O` (stereo partly drawn) [3SL, (6R)-5-Acetamido-3,5-dideoxy-6-[(1R,2R)-1,2,3-trihydroxypropyl]-β-L-threo-hex-2-ulopyranonosyl-(2->3)β-D-galactopyranosyl-(1->4)-D-glucopyranose], the “specificity of the calcium response” value (3SL 10 mg/mL compared with its components lactose and sialic acid, FIG. 2) was “specific”, the “significance of the increase in fluorescence ratio” value was “significant” and the “concentration dependence of calcium response / activation of NCI-H716 cells” value was “clear concentration dependent calcium response; also recorded: dose dependent activation”. The “fluorescence ratio (intracellular calcium response)” value was “enhanced” and the intracellular calcium release was “increased intracellular calcium release”.
In the case of `CC(=O)N[C@H]1[C@H]([C@H](O)[C@H](O)CO)O[C@@](OC[C@H]2O[C@@H](O[C@H]3[C@H](O)[C@@H](O)C(O)O[C@@H]3CO)[C@H](O)[C@@H](O)[C@H]2O)(C(=O)O)C[C@@H]1O` (stereo partly drawn) [6SL, (6R)-5-Acetamido-3,5-dideoxy-6-[(1R,2R)-1,2,3-trihydroxypropyl]-β-L-threo-hex-2-ulopyranonosyl-(2->6)β-D-galactopyranosyl-(1->4)-D-glucopyranose], the “significance of the increase in fluorescence ratio” value is reported as “significant”, the “concentration dependence of calcium response / activation of NCI-H716 cells” value is reported as “clear concentration dependent calcium response; also recorded: dose dependent activation” and the “fluorescence ratio (intracellular calcium response)” value is reported as “enhanced”. The intracellular calcium release was “increased intracellular calcium release”.
`OC[C@H]1O[C@@H](O[C@H]2[C@H](O)[C@@H](O)C(O)O[C@@H]2CO)[C@H](O)[C@@H](O)[C@H]1O` (some centres unmarked) [Lactose, lactose, reference compound] was tested, and the “activation of NCI-H716 cells (calcium response)” value (lactose 5.5 mg/mL (amount contained in 10 mg/mL of 3SL), FIG. 2) was “did not activate the cells”.
With `CC(=O)N[C@H]1[C@H]([C@H](O)[C@H](O)CO)OC(O)(C(=O)O)C[C@@H]1O` (some centres unmarked) [sialic acid, N-acetylneuraminic acid, reference compound] the “activation of NCI-H716 cells (calcium response)” value (sialic acid 4.72 mg/mL (amount contained in 10 mg/mL of 3SL), FIG. 2) was “did not activate the cells”.
